Assay results from patent publication US20190328822A1, “METHODS AND COMPOSITIONS FOR PREVENTING OR TREATING DOMINANT OPTIC ATROPHY” (STEALTH BIOTHERAPEUTICS CORP, priority 2014, published 2019).
Non-standard residues stand in square brackets, D forms with d. No end group written: not given here.

What was measured:
[1] = test system: reactive oxygen species; details: cited from earlier work
[2] = biological target: mu-opioid receptor (Homo sapiens, UniProt P35372); assay: mu-opioid receptor agonist activity
mu-opioid receptor, sequence (P35372 whole entry, species assumed): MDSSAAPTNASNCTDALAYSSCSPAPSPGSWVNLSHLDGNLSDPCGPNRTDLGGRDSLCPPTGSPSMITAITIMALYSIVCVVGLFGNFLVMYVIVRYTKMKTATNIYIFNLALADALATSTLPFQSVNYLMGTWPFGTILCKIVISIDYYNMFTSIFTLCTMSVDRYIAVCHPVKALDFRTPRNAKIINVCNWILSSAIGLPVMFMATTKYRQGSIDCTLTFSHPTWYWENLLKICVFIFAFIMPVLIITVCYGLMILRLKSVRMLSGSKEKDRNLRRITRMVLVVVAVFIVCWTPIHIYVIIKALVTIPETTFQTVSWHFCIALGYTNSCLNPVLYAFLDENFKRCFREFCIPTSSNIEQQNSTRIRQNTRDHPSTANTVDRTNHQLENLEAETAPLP

[3] = test system: Human subjects at risk of having, suspected of having, or diagnosed as having DOA; assay: Treatment and prevention of DOA in human subjects, ophthalmic solution (Example 2); type: in vivo; details: 1 drop of 1%, 3%, or 5% ophthalmic solution three times per day for 18 months
Procedure: Human subjects at risk of having (e.g., diagnosed with an OPA1 gene mutation, but who are not yet symptomatic, e.g., no visual impairment), suspected of having, or diagnosed as having DOA are administered a therapeutically effective amount of an aromatic-cationic peptide of the present technology, such as D-Arg-2′,6′-Dmt-Lys-Phe-NH2, alone or in conjunction with one or more additional therapeutic agents. Subjects will receive 1 drop of 1%, 3%, or 5% D-Arg-2′,6′-Dmt-Lys-Phe-NH2 ophthalmic solution in a randomly selected study eye three times per day for 18 months. The remaining eye of these subjects serves as the untreated internal control. The patients in the control group will be administered 1 drop of vehicle solution in one of their eyes (fellow control eye) three times per day over the course of the 18 month study. Subjects are assessed weekly for signs and symptoms associated with DOA according to one or more criteria described herein (e.g., one or more of visual loss, optic nerve atrophy, palor of the neuroretianl rim, presence of temporal pigmentary grey cresent, thinning of the fiber layer at the optic nerve rim, papillary excavation, scotoma, changes in color vision, etc.).

[4] = cited from earlier work
[5] = test system: plasma membrane of several mammalian cell types; details: energy-independent manner; cited from earlier work
[6] = test system: LHON patients; details: 85 LHON patients, 900 mg/d for 24 weeks; cited from earlier work
[7] = test system: LHON patients; details: cited from earlier work

## N[C@@H](CCC(=O)N[C@@H](CS)C(=O)NCC(=O)O)C(=O)O [glutathione]
[1]
  protective effects in vitro: modest protective effects

## Cc1c(C)c2c(c(C)c1O)CCC(C)(C(=O)O)O2 (centres unmarked) [Trolox]
[1]
  protective effects in vitro: modest protective effects

## D-Arg-2′,6′-dimethyltyrosine-Lys-Phe-NH2 [D-Arg-2′,6′-Dmt-Lys-Phe-NH2]
[2]
  mu-opioid receptor agonist activity: does not have mu-opioid receptor agonist activity
[3]
  onset and severity of the symptoms of DOA: prevent the onset of, delay the onset of, and/or reduce the severity of the symptoms of DOA

## Tyr-D-Arg-Phe-Lys-NH2
[2]
  mu-opioid receptor agonist activity: has mu-opioid receptor agonist activity

## COC1=C(OC)C(=O)C(C/C=C(\C)CC/C=C(\C)CC/C=C(\C)CC/C=C(\C)CC/C=C(\C)CC/C=C(\C)CC/C=C(\C)CC/C=C(\C)CC/C=C(\C)CCC=C(C)C)=C(C)C1=O [coenzyme Q-10]
[4]; exogenous
  delivery crossing lipid membranes to mitochondria: poor delivery
[1]
  protective effects in vitro: modest protective effects

## F[dR]FK-NH2
[2]
  mu-opioid receptor agonist activity: does not have mu-opioid receptor agonist activity

## 2′,6′-Dmt-D-Arg-Phe-Lys-NH2
[5]
  penetration of the plasma membrane: readily penetrates

## COC1=C(OC)C(=O)C(CCCCCCCCCCO)=C(C)C1=O [idebenone]
[4]; compared with coenzyme Q10
  delivery to mitochondria: higher delivery to mitochondria
  efficiency in crossing the blood-brain barrier: higher efficiency in crossing the blood-brain barrier
[6]
  final visual acuity vs placebo group: better final visual acuity than the placebo group
[7]; one 11778/ND4 LHON patient, from about 20 degrees
  diameter of the central scotomas after treatment: less than 5 degrees
[7]; seven LHON patients, about 450 mg/d
  recovery of visual acuity, color vision, and visual fields: showed recovery of visual acuity, color vision, and visual fields
